Test results published in ChEMBL document CHEMBL5291721, “A preclinical secondary pharmacology resource illuminates target-adverse drug reaction associations of marketed drugs” (Nat Commun, 2023).

Key:
Histamine H1 receptor = Histamine H1 receptor (Homo sapiens, UniProt P35367); format: functional, cell-based
[1] = target: T1, Peroxisome proliferator-activated receptor gamma (Homo sapiens, UniProt P37231); format: functional
T1 sequence (P37231 whole entry): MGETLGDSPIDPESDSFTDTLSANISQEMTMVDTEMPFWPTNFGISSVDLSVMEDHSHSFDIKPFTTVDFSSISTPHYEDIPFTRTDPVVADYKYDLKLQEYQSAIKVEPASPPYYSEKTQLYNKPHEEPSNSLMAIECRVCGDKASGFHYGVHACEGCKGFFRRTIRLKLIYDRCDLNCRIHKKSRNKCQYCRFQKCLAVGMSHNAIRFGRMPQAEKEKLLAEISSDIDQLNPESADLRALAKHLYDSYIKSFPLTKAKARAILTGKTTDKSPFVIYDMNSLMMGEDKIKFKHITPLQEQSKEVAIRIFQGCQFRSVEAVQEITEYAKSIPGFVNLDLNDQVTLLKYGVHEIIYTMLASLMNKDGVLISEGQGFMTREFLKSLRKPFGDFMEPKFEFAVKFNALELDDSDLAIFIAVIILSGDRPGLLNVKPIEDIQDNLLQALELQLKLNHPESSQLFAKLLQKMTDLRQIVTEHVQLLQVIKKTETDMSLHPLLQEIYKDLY

Glucagon receptor = Glucagon receptor (Homo sapiens, UniProt P47871)
[2] = target: T2, Endothelin receptor type B (Homo sapiens, UniProt P24530)
T2 sequence (P24530 whole entry): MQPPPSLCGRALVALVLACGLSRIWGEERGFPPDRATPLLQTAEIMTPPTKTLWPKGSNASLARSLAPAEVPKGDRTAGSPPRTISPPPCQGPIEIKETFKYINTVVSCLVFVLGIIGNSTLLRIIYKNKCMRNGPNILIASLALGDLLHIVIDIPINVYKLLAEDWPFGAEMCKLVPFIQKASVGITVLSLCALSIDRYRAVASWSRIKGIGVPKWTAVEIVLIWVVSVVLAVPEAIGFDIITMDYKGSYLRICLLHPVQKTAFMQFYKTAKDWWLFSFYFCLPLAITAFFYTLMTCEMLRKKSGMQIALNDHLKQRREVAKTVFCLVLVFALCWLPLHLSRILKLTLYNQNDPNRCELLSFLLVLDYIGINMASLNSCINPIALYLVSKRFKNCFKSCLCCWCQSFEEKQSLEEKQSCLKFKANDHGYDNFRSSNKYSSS

[3] = target: T3, 5-hydroxytryptamine receptor 1A (Homo sapiens, UniProt P08908)
T3 sequence (P08908 whole entry): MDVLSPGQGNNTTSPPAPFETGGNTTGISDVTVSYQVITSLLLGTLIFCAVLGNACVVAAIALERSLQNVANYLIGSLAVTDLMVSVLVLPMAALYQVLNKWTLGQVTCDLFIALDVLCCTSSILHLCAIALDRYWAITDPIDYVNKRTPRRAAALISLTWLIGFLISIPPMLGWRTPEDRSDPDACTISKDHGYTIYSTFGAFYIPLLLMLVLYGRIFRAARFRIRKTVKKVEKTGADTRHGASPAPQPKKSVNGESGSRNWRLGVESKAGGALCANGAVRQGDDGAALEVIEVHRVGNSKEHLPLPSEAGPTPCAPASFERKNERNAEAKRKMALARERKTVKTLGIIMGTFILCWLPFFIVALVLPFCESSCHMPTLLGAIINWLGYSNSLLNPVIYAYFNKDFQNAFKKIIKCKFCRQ

D(4) dopamine receptor = target: T4, D(4) dopamine receptor (Homo sapiens, UniProt P21917)
T4 sequence (P21917 whole entry): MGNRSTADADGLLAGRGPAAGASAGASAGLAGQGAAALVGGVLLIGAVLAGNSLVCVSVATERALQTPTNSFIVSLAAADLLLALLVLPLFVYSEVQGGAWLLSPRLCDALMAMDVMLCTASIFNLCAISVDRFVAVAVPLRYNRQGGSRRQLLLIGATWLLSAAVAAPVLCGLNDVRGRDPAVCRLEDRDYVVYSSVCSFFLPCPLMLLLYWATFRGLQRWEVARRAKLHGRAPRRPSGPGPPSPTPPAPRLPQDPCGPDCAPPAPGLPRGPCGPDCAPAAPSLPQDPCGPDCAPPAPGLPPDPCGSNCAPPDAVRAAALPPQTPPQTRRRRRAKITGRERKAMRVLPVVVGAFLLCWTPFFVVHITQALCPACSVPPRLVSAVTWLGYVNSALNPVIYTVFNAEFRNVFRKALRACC

[4] = target: T5, Alpha-2A adrenergic receptor (Homo sapiens, UniProt P08913)
T5 sequence (P08913 whole entry): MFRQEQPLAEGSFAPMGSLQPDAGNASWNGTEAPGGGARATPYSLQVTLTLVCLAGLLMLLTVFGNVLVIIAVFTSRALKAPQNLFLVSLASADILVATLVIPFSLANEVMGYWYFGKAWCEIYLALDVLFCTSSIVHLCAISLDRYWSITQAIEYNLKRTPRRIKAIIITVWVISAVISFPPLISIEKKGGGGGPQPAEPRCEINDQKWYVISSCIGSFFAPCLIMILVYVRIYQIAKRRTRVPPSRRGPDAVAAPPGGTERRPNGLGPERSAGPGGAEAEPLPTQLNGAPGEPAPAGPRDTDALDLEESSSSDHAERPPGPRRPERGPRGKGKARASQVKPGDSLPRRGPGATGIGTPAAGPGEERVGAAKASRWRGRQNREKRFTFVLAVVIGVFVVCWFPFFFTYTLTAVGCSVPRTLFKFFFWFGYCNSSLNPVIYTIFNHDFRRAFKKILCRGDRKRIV

B1 bradykinin receptor = target: T6, B1 bradykinin receptor (Homo sapiens, UniProt P46663)
T6 sequence (P46663 whole entry): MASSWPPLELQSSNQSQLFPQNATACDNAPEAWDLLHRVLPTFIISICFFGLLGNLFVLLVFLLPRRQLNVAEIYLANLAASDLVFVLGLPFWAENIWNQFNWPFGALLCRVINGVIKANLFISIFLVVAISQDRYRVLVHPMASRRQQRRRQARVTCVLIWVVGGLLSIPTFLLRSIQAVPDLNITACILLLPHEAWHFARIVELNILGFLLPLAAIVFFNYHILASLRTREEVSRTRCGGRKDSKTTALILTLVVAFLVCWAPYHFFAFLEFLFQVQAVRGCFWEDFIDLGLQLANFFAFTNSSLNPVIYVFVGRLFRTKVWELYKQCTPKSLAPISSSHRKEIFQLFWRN
Further: assay procedure not described here.

Chain of Glucagon receptor (P47871 whole entry): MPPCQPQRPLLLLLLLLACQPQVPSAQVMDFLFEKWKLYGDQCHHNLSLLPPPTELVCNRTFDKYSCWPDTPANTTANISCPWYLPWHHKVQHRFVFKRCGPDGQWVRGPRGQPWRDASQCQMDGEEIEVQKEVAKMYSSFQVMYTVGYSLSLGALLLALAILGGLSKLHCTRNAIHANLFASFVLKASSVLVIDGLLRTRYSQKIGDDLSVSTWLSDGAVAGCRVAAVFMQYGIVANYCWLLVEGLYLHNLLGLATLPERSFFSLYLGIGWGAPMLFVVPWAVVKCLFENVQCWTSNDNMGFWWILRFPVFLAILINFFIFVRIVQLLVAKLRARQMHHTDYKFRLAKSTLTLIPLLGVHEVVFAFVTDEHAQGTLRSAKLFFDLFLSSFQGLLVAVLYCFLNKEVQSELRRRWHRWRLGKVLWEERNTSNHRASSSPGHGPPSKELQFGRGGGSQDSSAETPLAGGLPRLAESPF
Chain of Histamine H1 receptor (P35367 whole entry): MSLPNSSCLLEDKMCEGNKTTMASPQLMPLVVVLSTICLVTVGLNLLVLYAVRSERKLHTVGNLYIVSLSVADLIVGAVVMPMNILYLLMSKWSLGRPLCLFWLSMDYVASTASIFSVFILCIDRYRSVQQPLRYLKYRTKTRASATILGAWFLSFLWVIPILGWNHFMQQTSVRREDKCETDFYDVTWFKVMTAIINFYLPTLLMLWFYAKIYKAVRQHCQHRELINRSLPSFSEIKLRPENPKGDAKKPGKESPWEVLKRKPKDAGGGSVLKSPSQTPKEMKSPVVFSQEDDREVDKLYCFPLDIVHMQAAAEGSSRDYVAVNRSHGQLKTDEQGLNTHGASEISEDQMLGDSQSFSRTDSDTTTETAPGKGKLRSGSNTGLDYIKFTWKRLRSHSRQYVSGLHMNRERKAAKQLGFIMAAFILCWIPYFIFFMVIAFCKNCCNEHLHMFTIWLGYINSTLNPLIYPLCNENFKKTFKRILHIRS

`CN(C)C/C=C/C(=O)Nc1cc2c(Nc3ccc(F)c(Cl)c3)ncnc2cc1O[C@H]1CCOC1` [AFATINIB] gave an AC50 (Histamine H1 receptor) greater than 30 µM and an AC50 [1] greater than 30 µM.

Work on `O=C(/C=C/c1cccc(S(=O)(=O)Nc2ccccc2)c1)NO` [BELINOSTAT] yielded an AC50 (Glucagon receptor) greater than 10 µM, an AC50 [2] greater than 10 µM and an AC50 [3] greater than 10 µM. It also gave an AC50 (D(4) dopamine receptor) greater than 10 µM, an AC50 [4] greater than 10 µM and an AC50 (B1 bradykinin receptor) greater than 10 µM.

`CC(C)(Oc1ccc(CCNC(=O)c2ccc(Cl)cc2)cc1)C(=O)O` [BEZAFIBRATE] was tested, and the AC50 [1] was greater than 30 µM.

`CC(O)(CS(=O)(=O)c1ccc(F)cc1)C(=O)Nc1ccc(C#N)c(C(F)(F)F)c1` (stereo unspecified) [BICALUTAMIDE] showed an AC50 (Glucagon receptor) greater than 30 µM, an AC50 [2] greater than 30 µM and an AC50 [3] greater than 10 µM. The AC50 (D(4) dopamine receptor) was greater than 10 µM, the AC50 [4] was greater than 10 µM and the AC50 (B1 bradykinin receptor) was greater than 30 µM.

With `O=C(O)COCCN1CCN(C(c2ccccc2)c2ccc(Cl)cc2)CC1` (stereo unspecified) [CETIRIZINE] the AC50 (Glucagon receptor) was greater than 30 µM, the AC50 [2] was greater than 30 µM and the AC50 [3] was greater than 10 µM. The AC50 (D(4) dopamine receptor) was greater than 10 µM, the AC50 [4] was greater than 10 µM and the AC50 (B1 bradykinin receptor) was greater than 30 µM.

`CC(=O)O[C@]1(C(C)=O)CC[C@H]2[C@@H]3C=C(Cl)C4=CC(=O)[C@@H]5C[C@@H]5[C@]4(C)[C@H]3CC[C@@]21C` [CYPROTERONE ACETATE] gave an AC50 [3] greater than 10 µM and an AC50 [4] greater than 10 µM.

With `C[C@@H]1C[C@H]2[C@@H]3C[C@H](F)C4=CC(=O)C=C[C@]4(C)[C@@]3(F)[C@@H](O)C[C@]2(C)[C@@]1(OC(=O)c1ccco1)C(=O)SCF` [FLUTICASONE FUROATE] the AC50 (Glucagon receptor) was greater than 10 µM, the AC50 [2] was greater than 10 µM and the AC50 [3] was greater than 10 µM. It also gave an AC50 (D(4) dopamine receptor) greater than 10 µM, an AC50 [4] greater than 10 µM and an AC50 (B1 bradykinin receptor) greater than 10 µM.

With `CN(C)CCCN1c2ccccc2CCc2ccccc21` [IMIPRAMINE] the AC50 (Glucagon receptor) was greater than 30 µM, the AC50 [2] was greater than 30 µM and the AC50 [3] was greater than 10 µM. It also gave an AC50 (D(4) dopamine receptor) of 5.56 µM, an AC50 [4] greater than 10 µM and an AC50 (B1 bradykinin receptor) greater than 30 µM.

Compound `CN(Cc1cnc2nc(N)nc(N)c2n1)c1ccc(C(=O)N[C@@H](CCC(=O)O)C(=O)O)cc1` [METHOTREXATE] has an AC50 (Glucagon receptor) greater than 30 µM, an AC50 [2] greater than 30 µM and an AC50 [3] greater than 10 µM. The AC50 [4] was greater than 10 µM and the AC50 (B1 bradykinin receptor) was greater than 30 µM.

For `OC[C@H]1O[C@@H](n2cnc3c2NC=NC[C@H]3O)C[C@@H]1O` [PENTOSTATIN], the AC50 (Histamine H1 receptor) was greater than 30 µM and the AC50 [1] was greater than 30 µM.

`CC(C)c1cccc(C(C)C)c1O` [PROPOFOL] gave an AC50 [1] greater than 30 µM.

Compound `CN[C@@H](C)[C@@H](O)c1ccccc1` [PSEUDOEPHEDRINE] has an AC50 (Glucagon receptor) greater than 30 µM, an AC50 [2] greater than 30 µM and an AC50 [3] greater than 10 µM. It also gave an AC50 (D(4) dopamine receptor) greater than 10 µM, an AC50 [4] greater than 10 µM and an AC50 (B1 bradykinin receptor) greater than 30 µM.

Work on `O=C1OC(OC(=O)c2cccnc2Nc2cccc(C(F)(F)F)c2)c2ccccc21` (stereo unspecified) [TALNIFLUMATE] yielded an AC50 (Histamine H1 receptor) greater than 30 µM.

For `O=S1(=O)CCN(CN2CCS(=O)(=O)NC2)CN1` [TAUROLIDINE], the AC50 (Histamine H1 receptor) was greater than 30 µM.
